Laboratory results as given in ChEMBL document CHEMBL3885881, “DrugMatrix”.

Organism: Rattus norvegicus
Test: DrugMatrix - Regimen: Daily Repeat
Format: toxicity, organism-based, Sprague-Dawley
Design: regimen Daily Repeat, gender Male, age 6-8 weeks
Conditions: in vivo, sc, route subcutaneous, […]; for ABSOLUTE BASOPHIL / ABSOLUTE EOSINOPHIL / ABSOLUTE LYMPHOCYTE / ABSOLUTE MONOCYTE / ABSOLUTE SEGMENTED NEUTROPHIL / BASOPHIL / EOSINOPHIL / ERYTHROCYTE COUNT / HEMATOCRIT / HEMOGLOBIN / LEUKOCYTE COUNT / LYMPHOCYTE / MEAN CORPUSCULAR HEMOGLOBIN / MEAN CORPUSCULAR HEMOGLOBIN CONCENTRATION / MEAN CORPUSCULAR VOLUME / MONOCYTE / NEUTROPHIL / NUCLEATED RED BLOOD CELLS / PLATELET COUNT: tissue Blood; for ALANINE AMINOTRANSFERASE / ALBUMIN / ALKALINE PHOSPHATASE / ASPARTATE AMINOTRANSFERASE / BLOOD UREA NITROGEN / CARBON DIOXIDE / CHLORIDE / CHOLESTEROL / CREATINE PHOSPHOKINASE / CREATININE / GLUCOSE / LACTATE DEHYDROGENASE / LIPASE / PHOSPHORUS / POTASSIUM / SODIUM / TOTAL BILIRUBIN / TOTAL PROTEIN / URIC ACID: tissue Plasma
[1] = 50 mg/kg, 120 h, dose level Low, time 5 day
[2] = 150 mg/kg, 72 h, dose level M2, time 3 day
[3] = 150 mg/kg, 120 h, dose level M2, time 5 day

CC(C)(c1ccc(O)cc1)c1ccc(O)cc1 [BISPHENOL A]
ABSOLUTE BASOPHIL [1]: 0 CELLS/uL | ABSOLUTE EOSINOPHIL [1]: 0 CELLS/uL | ABSOLUTE LYMPHOCYTE [1]: 15258.67 CELLS/uL | ABSOLUTE MONOCYTE [1]: 508.33 CELLS/uL | ABSOLUTE SEGMENTED NEUTROPHIL [1]: 1433 CELLS/uL | BASOPHIL [1]: 0% | EOSINOPHIL [1]: 0% | ERYTHROCYTE COUNT [1]: 5.65 x10E6/uL | HEMATOCRIT [1]: 35.13% | HEMOGLOBIN [1]: 13.73 G/DL | LEUKOCYTE COUNT [1]: 17.2 x10E3/uL | LYMPHOCYTE [1]: 89% | MEAN CORPUSCULAR HEMOGLOBIN [1]: 24.33 pg | MEAN CORPUSCULAR HEMOGLOBIN CONCENTRATION [1]: 39.07 G/DL | MEAN CORPUSCULAR VOLUME [1]: 62.23 fL | MONOCYTE [1]: 2.33% | NEUTROPHIL [1]: 8.67% | NUCLEATED RED BLOOD CELLS [1]: 0 /100WBC | PLATELET COUNT [1]: 1289 x10E3/uL | ALANINE AMINOTRANSFERASE [1]: 62.67 u/L | ALBUMIN [1]: 3.57 G/DL | ALKALINE PHOSPHATASE [1]: 300 u/L | ASPARTATE AMINOTRANSFERASE [1]: 93 u/L | BLOOD UREA NITROGEN [1]: 14.67 mg/dL | CARBON DIOXIDE [1]: 24 mmol/L | CHLORIDE [1]: 103.67 MEQ/L | CHOLESTEROL [1]: 48.67 mg/dL | CREATINE PHOSPHOKINASE [1]: 675.67 u/L | CREATININE [1]: 0.15 mg/dL | GLUCOSE [1]: 190.67 mg/dL | LACTATE DEHYDROGENASE [1]: 256.67 u/L | LIPASE [1]: 11.67 u/L | PHOSPHORUS [1]: 13.4 mg/dL | POTASSIUM [1]: 6.14 MEQ/L | SODIUM [1]: 142.27 MEQ/L | TOTAL BILIRUBIN [1]: 0.1 mg/dL | TOTAL PROTEIN [1]: 5.27 G/DL | URIC ACID [1]: 2.23 mg/dL | ABSOLUTE BASOPHIL [2]: 0 CELLS/uL | ABSOLUTE EOSINOPHIL [2]: 21 CELLS/uL | ABSOLUTE LYMPHOCYTE [2]: 7705 CELLS/uL | ABSOLUTE MONOCYTE [2]: 0 CELLS/uL | ABSOLUTE SEGMENTED NEUTROPHIL [2]: 574 CELLS/uL | BASOPHIL [2]: 0% | EOSINOPHIL [2]: 0.33% | ERYTHROCYTE COUNT [2]: 5.46 x10E6/uL | HEMATOCRIT [2]: 34.77% | HEMOGLOBIN [2]: 13.53 G/DL | LEUKOCYTE COUNT [2]: 8.3 x10E3/uL | LYMPHOCYTE [2]: 92.33% | MEAN CORPUSCULAR HEMOGLOBIN [2]: 24.8 pg | MEAN CORPUSCULAR HEMOGLOBIN CONCENTRATION [2]: 38.97 G/DL | MEAN CORPUSCULAR VOLUME [2]: 63.67 fL | MONOCYTE [2]: 0% | NEUTROPHIL [2]: 7.33% | NUCLEATED RED BLOOD CELLS [2]: 0 /100WBC | PLATELET COUNT [2]: 1030 x10E3/uL | ALANINE AMINOTRANSFERASE [2]: 54.67 u/L | ALBUMIN [2]: 3.73 G/DL | ALKALINE PHOSPHATASE [2]: 286.67 u/L | ASPARTATE AMINOTRANSFERASE [2]: 73 u/L | BLOOD UREA NITROGEN [2]: 9.33 mg/dL | CARBON DIOXIDE [2]: 21 mmol/L | CHLORIDE [2]: 96 MEQ/L | CHOLESTEROL [2]: 72.67 mg/dL | CREATINE PHOSPHOKINASE [2]: 254.33 u/L | CREATININE [2]: 0.11 mg/dL | GLUCOSE [2]: 143 mg/dL | LACTATE DEHYDROGENASE [2]: 106.33 u/L | LIPASE [2]: 8 u/L | PHOSPHORUS [2]: 11.83 mg/dL | POTASSIUM [2]: 5.68 MEQ/L | SODIUM [2]: 141.4 MEQ/L | TOTAL BILIRUBIN [2]: 0.1 mg/dL | TOTAL PROTEIN [2]: 5.57 G/DL | URIC ACID [2]: 0.53 mg/dL | ABSOLUTE BASOPHIL [3]: 0 CELLS/uL | ABSOLUTE EOSINOPHIL [3]: 91.33 CELLS/uL | ABSOLUTE LYMPHOCYTE [3]: 12830 CELLS/uL | ABSOLUTE MONOCYTE [3]: 122 CELLS/uL | ABSOLUTE SEGMENTED NEUTROPHIL [3]: 2190 CELLS/uL | BASOPHIL [3]: 0% | EOSINOPHIL [3]: 0.67% | ERYTHROCYTE COUNT [3]: 5.93 x10E6/uL | HEMATOCRIT [3]: 36.47% | HEMOGLOBIN [3]: 14.23 G/DL | LEUKOCYTE COUNT [3]: 15.23 x10E3/uL | LYMPHOCYTE [3]: 85% | MEAN CORPUSCULAR HEMOGLOBIN [3]: 24.1 pg | MEAN CORPUSCULAR HEMOGLOBIN CONCENTRATION [3]: 39.03 G/DL | MEAN CORPUSCULAR VOLUME [3]: 61.63 fL | MONOCYTE [3]: 0.67% | NEUTROPHIL [3]: 13.67% | NUCLEATED RED BLOOD CELLS [3]: 0.33 /100WBC | PLATELET COUNT [3]: 1323.33 x10E3/uL | ALANINE AMINOTRANSFERASE [3]: 59 u/L | ALBUMIN [3]: 3.77 G/DL | ALKALINE PHOSPHATASE [3]: 246.33 u/L | ASPARTATE AMINOTRANSFERASE [3]: 81.67 u/L | BLOOD UREA NITROGEN [3]: 13.33 mg/dL | CARBON DIOXIDE [3]: 25.67 mmol/L | CHLORIDE [3]: 102.67 MEQ/L | CHOLESTEROL [3]: 61.67 mg/dL | CREATINE PHOSPHOKINASE [3]: 253 u/L | CREATININE [3]: 0.21 mg/dL | GLUCOSE [3]: 193 mg/dL | LACTATE DEHYDROGENASE [3]: 151.67 u/L | LIPASE [3]: 10 u/L | PHOSPHORUS [3]: 13.27 mg/dL | POTASSIUM [3]: 5.91 MEQ/L | SODIUM [3]: 142.47 MEQ/L | TOTAL BILIRUBIN [3]: 0.13 mg/dL | TOTAL PROTEIN [3]: 5.57 G/DL | URIC ACID [3]: 2.37 mg/dL
